Read-outs that look alike come from different tables or passages of the source.
What was measured:
HIV-1 integrase = HIV-1 integrase (Human immunodeficiency virus type 1 group M subtype B, UniProt P12497); test: biochemical; assay type: biochemical
Description: In Vitro Integrase Assay.
Integrase reactions were carried out by adding drugs or an equivalent volume of 100% dimethyl sulfoxide (DMSO; used as the drug solvent) to a mixture of 20 nM DNA and 400 nM integrase in 50 mM morpholinepropanesulfonic acid (pH 7.2), 7.5 mM MgCl2, and 14 mM 2-mercaptoethanol. Reactions were performed at 37° C. for 2 h and quenched by the addition of an equal volume of loading buffer (formamide containing 1% sodium dodecyl sulfate, 0.25% bromophenol blue, and xylene cyanol). […] Dried gels were visualized using a Typhoon 8600 (GE Healthcare, Piscataway, N.J.). Densitometric analyses were performed using ImageQuant 5.1 software from GE Healthcare.

in vitro = assay type: cell-based, human; conditions: human, 50% reduction in the level of ATP in HOS cells
Description: Cellular Cytotoxicity Assay.
On the day of the screen, cells were treated with compounds at the appropriate concentration range chosen and incubated at 37° C. for 48 hrs. Cytotoxicity was measured by monitoring ATP levels via a luciferase reporter assay. Cells were lysed in 50 μL cell lysis buffer (PerkinElmer, Waltham, Mass.) and shaken at 700 rpm at room temperature for 5 mins After the addition of 50 μL of ATPlite buffer (PerkinElmer) directly onto the lysed cells and shaking at 700 rpm at room temperature for 5 mins, ATP levels were monitored by measuring luciferase activity using a microplate reader. Activity was normalized to cytotoxicity in the absence of target compounds. KaleidaGraph (Synergy Software, Reading, Pa.) was used to perform regression analysis on the data. CC50 values were determined from the fit model.

[1] = test system: HIV-1 constructs containing wild-type IN; test: microbe, parasite or virus in culture; assay type: cell-based; conditions: for EC50: Human immunodeficiency virus 1
Source text: (§1) Single-Round HIV-1 Infectivity Assay.
(§2) Human embryonyl kidney cell culture cell line 293 was acquired from the American type Culture Collection (ATCC).
(§3) The virus-containing supernatants were then harvested, clarified by low-speed centrifugation, filtrated, and diluted for preparation in infection assays. […] Activity was normalized to infectivity in the absence of target compounds. KaleidaGraph (Synergy Software, Reading, Pa.) was used to perform regression analysis on the data. EC50 values were determined from the fit model.

[2] = test system: HIV-1 constructs containing mutant IN G140S-Q148H; test: microbe, parasite or virus in culture; assay type: cell-based; conditions: for EC50: Human immunodeficiency virus 1
Source text: as §1, §2, §3
(§4) pNLNgoMIVR^−ΔEnv.LUC has been described previously (Zhao et al. 2008). The integrase codon reading frame was removed from pNLNgoMIVR^−ΔEnv LUC (between KpnI and SalI sites) and placed between the KpnI and SalI sites of pBluescript II KS+. Using that construct as the wild-type template, we prepared the following HIV-1 Integrase-resistant mutants via the QuikChange II XL (Stratagene, La Jolla, Calif.) site-directed mutagenesis protocol: H51Y, T66I, E92Q, G118R, Y143R, Q148H, Q148K, N155H, R263K, G140S+Q148H, G140A+Q148K, E138K+Q148K, and H51Y+R263K. The following sense with cognate antisense (not shown) oligonucleotides (Integrated DNA Technologies, Coralville, Iowa) were used in the mutagenesis: H51Y, 5′-[…]-3; T66I, 5′-[…]-3′; E92Q, 5′-[…]-3′; G118R, 5′-[…]-3′; E138K, 5′-[…]-3; G140A, 5′-[…]-3; G140S, 5′-[…]-3′; Y143R, 5′-[…]-3′; Q148H, 5′-[…]-3′; Q148K, 5′-[…]-3; N155H, 5′-[…]-3′; R263K 5′-[…]-3′. The double mutation G140S+Q148H was constructed by using the previously generated Q148H mutant and the appropriate oligonucleotide for the 2nd mutation, G140S. The double mutation G140A+Q148K was made by using the Q148K mutant and the appropriate oligonucleotide for the 2nd mutation, G140A. The double mutation E138K+Q148K was made by using the Q148K mutant and the appropriate oligonucleotide for the 2nd mutation, E138K. The double mutation H51Y+R263K was constructed by using the previously generated H51Y mutant and the appropriate oligonucleotides for the 2nd mutation, R263K. The DNA sequence of each construct was verified independently by DNA sequence determination. […] These DNA sequences were additionally checked independently by DNA sequence determination.

[3] = test system: HIV-1 constructs containing mutant IN N155H; test: microbe, parasite or virus in culture; assay type: cell-based; conditions: for EC50: Human immunodeficiency virus 1
Source text: as §1, §2, §3, §4

[4] = test system: HIV-1 constructs containing mutant IN Y143R; test: microbe, parasite or virus in culture; assay type: cell-based; conditions: for EC50: Human immunodeficiency virus 1
Source text: as §1, §2, §3, §4

[5] = Table 1, 3′-processing, read-out: IC50 Values 3′-Processing
[6] = Table 1, strand transfer, read-out: IC50 Values Strand transfer
[7] = Table 2, cells infected with lentiviral vector harboring WT IN, read-out: EC50
[8] = Table 3, WT IN, read-out: EC50 (nM, WT)
[9] = Table 3, G140S-Q148H double mutant, read-out: EC50 (nM, IN Mutants) SH
[10] = Table 3, read-out: EC50 (nM, IN Mutants) N155H
[11] = Table 3, read-out: EC50 (nM, IN Mutants) Y143R
[12] = Table 7, 3′-processing, read-out: IC50 (μM) 3′-P
[13] = Table 7, strand transfer, read-out: IC50 (μM) ST
[14] = Table 8, WT IN, read-out: EC50 (nM, WT)
[15] = Table 8, read-out: EC50 (nM, IN mutants) G140S/Q148H
[16] = Table 8, read-out: EC50 (nM, IN mutants) N155H
[17] = Table 8, read-out: EC50 (nM, IN mutants) Y143R
[18] = Table 10, strand transfer, read-out: IC50 (nM, ST)
[19] = Table 4, 3′-processing, read-out: IC50 (3^+-Processing)
[20] = Table 4, strand transfer, read-out: IC50 (Strand Transfer)

Structure (SMILES)	CC50 (in vitro; Table 3) [nM]	EC50 [1, 8] [nM]	EC50 [2, 9] [nM]	EC50 [3, 10] [nM]	EC50 [4, 11] [nM]	IC50 (HIV-1 integrase; [12]) [nM]	IC50 (HIV-1 integrase; [13]) [nM]	CC50 (in vitro; Table 8) [nM]	EC50 [1, 14] [nM]	EC50 [2, 15] [nM]	EC50 [3, 16] [nM]	EC50 [4, 17] [nM]	other results
O=C(NCc1ccc(F)c(F)c1)c1c(O)c2cccnc2n(O)c1=O [XZ367, N-(3,4-difluorobenzyl)-1,4-dihydroxy-2-oxo-1,2-dihydro-1,8-naphthyridine-3-carboxamide]	192000 ± 19000	20 ± 6.2	507 ± 125	189 ± 70.1	44.5 ± 12.2								IC50 (HIV-1 integrase; [5]): 3600 ± 600 nM; IC50 (HIV-1 integrase; [6]): 40 ± 10 nM; CC50 (in vitro; Table 2): 192000 nM; SI [1]: 9,585; Si (selectivity index) [1]: 9,585; EC50 [1, 7]: 20 nM; Integrase Mutants SH (G140S-Q148H), fold-change in EC50 relative to WT [2]: 25 x; Integrase Mutants N155H, fold-change in EC50 relative to WT [3]: 9 x; Integrase Mutants Y143R, fold-change in EC50 relative to WT [4]: 2 x
Nc1c(C(=O)NCc2ccc(F)cc2F)c(=O)n(O)c2ncc(CCCCCCOC(=O)c3ccccc3)cc12 [XZ427, 6-(5-Amino-6-((2,4-difluorobenzyl)carbamoyl)-8-hydroxy-7-oxo-7,8-dihydro-1,8-naphthyridin-3-yl)hexyl benzoate]						143000 ± 14000	3340 ± 557	14400	4.8	21	5.4	3.5	
O=C(NCc1ccc(F)c(Cl)c1)c1c(O)c2cccnc2n(O)c1=O [XZ365, N-(3-chloro-4-fluorobenzyl)-1,4-dihydroxy-2-oxo-1,2-dihydro-1,8-naphthyridine-3-carboxamide]	102000 ± 17800	34.9 ± 12.3	489 ± 61.8	148 ± 8.3	53.6 ± 9.2								IC50 (HIV-1 integrase; [5]): 4700 ± 700 nM; IC50 (HIV-1 integrase; [6]): 27 ± 6 nM; CC50 (in vitro; Table 2): 102000 nM; SI [1]: 2,911; Si (selectivity index) [1]: 2,920; EC50 [1, 7]: 35 nM; Integrase Mutants SH (G140S-Q148H), fold-change in EC50 relative to WT [2]: 14 x; Integrase Mutants N155H, fold-change in EC50 relative to WT [3]: 4 x; Integrase Mutants Y143R, fold-change in EC50 relative to WT [4]: 2 x
Nc1c(C(=O)NCc2ccc(F)cc2F)c(=O)n(O)c2ncc(CCC(=O)O)cc12 [XZ444, 3-(5-Amino-6-((2,4-difluorobenzyl)carbamoyl)-8-hydroxy-7-oxo-7,8-dihydro-1,8-naphthyridin-3-yl)propanoic acid]								> 250000	1.9	195	10.3	4.9	IC50 (HIV-1 integrase; [18]): 3.9 ± 1.3 nM
CS(=O)(=O)CCc1cnc2c(c1)c(N)c(C(=O)NCc1ccc(F)cc1F)c(=O)n2O [XZ445, 4-Amino-N-(2,4-difluorobenzyl)-1-hydroxy-6-(2-(methylsulfonyl)ethyl)-2-oxo-1,2-dihydro-1,8-naphthyridine-3-carboxamide]								95400	27	118	32.8	27.5	IC50 (HIV-1 integrase; [18]): ~0.07 nM
Nc1c(C(=O)NCc2ccc(F)cc2F)c(=O)n(O)c2ncc(CCCCc3ccccc3)cc12 [XZ429, 4-Amino-N-(2,4-difluorobenzyl)-1-hydroxy-2-oxo-6-(4-phenylbutyl)-1,2-dihydro-1,8-naphthyridine-3-carboxamide]						42000 ± 4000	1980 ± 422	12800	10.6	128	38.8	4.7	
CN(C)c1c(C(=O)NCc2ccc(F)cc2F)c(=O)n(O)c2ncccc12 [XZ372, N-(2,4-difluorobenzyl)-4-(dimethylamino)-1-hydroxy-2-oxo-1,2-dihydro-1,8-naphthyridine-3-carboxamide]	13000 ± 1800	268 ± 8.03	6800 ± 0.4	2300 ± 700	273 ± 51.7								IC50 (HIV-1 integrase; [19]): 21000 ± 2000 nM; IC50 (HIV-1 integrase; [20]): 87 ± 12 nM; Si (selectivity index) ([1]; Table 3, ratio of CC50 to EC50): 49
CN(C)CCCc1cnc2c(c1)c(N)c(C(=O)NCc1ccc(F)cc1F)c(=O)n2O [XZ425, 4-Amino-N-(2,4-difluorobenzyl)-6-(3-(dimethylamino)propyl)-1-hydroxy-2-oxo-1,2-dihydro-1,8-naphthyridine-3-carboxamide]						3000 ± 400	14.3 ± 2.2	5000	6.07	31.7	29.4	7 ± 2.3	
Nc1c(C(=O)NCc2ccc(F)cc2F)c(=O)n(O)c2ncc(CCS(=O)(=O)CCN3CCOCC3)cc12 [XZ447, 4-Amino-N-(2,4-difluorobenzyl)-1-hydroxy-6-(2-((2-morpholinoethyl)sulfonyl)ethyl)-2-oxo-1,2-dihydro-1,8-naphthyridine-3-carboxamide]								> 250000	268	412	140	109	IC50 (HIV-1 integrase; [18]): 2.5 ± 1.3 nM
Nc1c(C(=O)NCc2ccc(F)cc2F)c(=O)n(O)c2ncc(-c3ccccc3)cc12 [XZ420, 4-Amino-N-(2,4-difluorobenzyl)-1-hydroxy-2-oxo-6-phenyl-1,2-dihydro-1,8-naphthyridine-3-carboxamide]						17900 ± 1600	1.6 ± 0.3	184000	3.4 ± 0.7	39.6	18.7	3.7	
COc1ccc2c(N)c(C(=O)NCc3ccc(F)cc3F)c(=O)n(O)c2n1 [XZ406, 4-amino-N-(2,4-difluorobenzyl)-1-hydroxy-7-methoxy-2-oxo-1,2-dihydro-1,8-naphthyridine-3-carboxamide]													IC50 (HIV-1 integrase; [19]): 18000 ± 2000 nM; IC50 (HIV-1 integrase; [20]): 11 ± 2 nM; CC50 (in vitro; Table 5): 2200 ± 430 nM; EC50 ([1]; Table 5, WT IN, read-out: EC50 (nM, WT)): 30.3 ± 9.1 nM; SI ([1]; Table 5, ratio of CC50 to EC50): 73; EC50 ([2]; Table 5, G1405-Q148H double mutant, read-out: EC50 (nM, IN Mutants) SH): 3600 ± 1600 nM; EC50 ([3]; Table 5, read-out: EC50 (nM, IN Mutants) N155H): 400 ± 101 nM; EC50 ([4]; Table 5, read-out: EC50 (nM, IN Mutants) Y143R): 62.2 ± 25.6 nM
O=C(NCc1ccc(F)cc1F)c1cc2cccnc2n(O)c1=O [XZ390, N-(2,4-difluorobenzyl)-1-hydroxy-2-oxo-1,2-dihydro-1,8-naphthyridine-3-carboxamide]	> 250000	5.1 ± 1.9	438 ± 121	134 ± 23	4.9 ± 0.77								IC50 (HIV-1 integrase; [5]): 6100 ± 800 nM; IC50 (HIV-1 integrase; [6]): 41 ± 12 nM; Si (selectivity index) [1]: >25,000

Reference: patent US9676771B2, “Compounds for inhibiting drug-resistant strains of HIV-1 integrase” (priority 2013, dated 2017)
